“And” between values parts separate entries of the source, which are not always exact repeats. Equal entries are not always repeated.
Legend:
Assay type in all cases: physicochemical
[1] = Qualitative solubility in representative organic solvents; conditions: for solubility in CH2Cl2: CH2Cl2, qualitative; for solubility in dimethylformamide / solubility in ethanol / solubility in hexanes / solubility in toluene: qualitative
[2] = Chemical stability (air, chromatography); conditions: air
[3] = Salt concentration in polar and nonpolar solvents (Table 2); conditions: for solubility in hexanes and mineral oil: mineral oil (Nujol)
[4] = Photofading of phthalocyanines on irradiation with tungsten lamp light; conditions: toluene ~0.01 mM, 300 W tungsten lamp, 30 cm, room temperature
Protocol: Linolenate Ester of SiPc(OH)2, SiPc(OC(O)(CH2)6(CH2CH═CH)3 CH2CH3]2. A solution of the linolenate ester of SiPc(OH)2 in toluene (˜0.01 mM) in a capped quartz cuvette was irradiated at room temperature with light from a tungsten lamp (300 W) in a projector (Kodak […] III E, Kodak, Japan) with a lamp-to-cuvette separation of 30 cm. The UV-vis absorption of the solution at 684 nm was taken periodically and the percent ester remaining was calculated.
The compounds below Table 7 show phthalocyanines with (a) polyunsaturated ester ligands and (b) with polyunsaturated anions

[5] = Quantitative solubility (concentration) in H2O and aqueous dispersants
Source text: Disperstants are agents added to an aqueous solution to prevent clumping, and include a number of surfactant and surfactant-like molecules. […]

solubility in CH2Cl2 [1] | solubility in dimethylformamide [1] | solubility in ethanol [1] | solubility in hexanes [1] | solubility in toluene [1] | Compound | other results
soluble | soluble | soluble | insoluble | moderately soluble | 4-C9H19C6H4-1-(OCH2CH2)˜20O(CH2)3SO3H [Compound 17] | 
soluble | soluble | soluble | insoluble | moderately soluble | CN(C)CCC[Si](C)(C)O[Si-2]123(F)n4c5c6ccccc6c4N=C4c6ccccc6C(=[N+]41)N=c1c4ccccc4c(n12)=NC1=[N+]3C(=N5)c2ccccc21 [Compound 1, FSiPcOSi(CH3)2(CH2)3N(CH3)2] | stability in air [2]: stable
soluble | soluble | soluble | insoluble | moderately soluble | CC(=O)O[Si-2]123(O[Si](C)(C)CCCN(C)C)n4c5c6ccccc6c4N=C4c6ccccc6C(=[N+]41)N=c1c4ccccc4c(n12)=NC1=[N+]3C(=N5)c2ccccc21 [Compound 2, CH3C(O)OSiPcOSi(CH3)2(CH2)3N(CH3)2] | stability in air [2]: stable
soluble | soluble | soluble | insoluble | moderately soluble | CO[Si]1(O[Si](C)(C)CCCN(C)C)n2c3c4ccccc4c2N=C2N=C(N=c4c5ccccc5c(n41)=NC1=NC(=N3)c3ccccc31)c1ccccc12 (stereo not drawn) [Compound 4, CH3OSiPcOSi(CH3)2(CH2)3N(CH3)2] | stability in air [2]: stable
soluble | soluble | soluble | insoluble | moderately soluble | CN(C)CCC[Si](C)(C)O[Si]1(O)n2c3c4ccccc4c2N=C2N=C(N=c4c5ccccc5c(n41)=NC1=NC(=N3)c3ccccc31)c1ccccc12.COC(=O)c1ccccc1C(=O)O (stereo not drawn) [Compound 10, [HOSiPcOSi(CH3)2(CH2)3NH(CH2)2]^+[2-(CH3OC(O))C6H4C(O)O]^−] | 
soluble | soluble | soluble | insoluble | moderately soluble | CN(C)CCC[Si](C)(C)O[Si]1(O)n2c3c4ccccc4c2N=C2N=C(N=c4c5ccccc5c(n41)=NC1=NC(=N3)c3ccccc31)c1ccccc12.CP(C)(=O)O (stereo not drawn) [Compound 13, [HOSiPcOSi(CH3)2(CH2)3NH(CH2)2]^+[(CH3)2P(O)O]^−] | 
soluble | soluble | soluble | insoluble | moderately soluble | CN(C)CCC[Si](C)(C)O[Si]1(O)n2c3c4ccccc4c2N=C2N=C(N=c4c5ccccc5c(n41)=NC1=NC(=N3)c3ccccc31)c1ccccc12.O=C(O)CCC(=O)OCCOCCOCCOCCOCCOCCOCCOCCOCCO (stereo not drawn) [Compound 20, [HOSiPcOSi(CH3)2(CH2)3NH(CH3)2]^+[H(OCH2CH2)9OC(O)(CH2)2C(O)O]^−] | 
 |  |  |  |  | CN(C)CCC[Si](C)(C)O[Si]1(O)n2c3c4ccccc4c2N=C2N=C(N=c4c5ccccc5c(n41)=NC1=NC(=N3)c3ccccc31)c1ccccc12.CS(=O)(=O)O (stereo not drawn) [Compound 26, [HOSiPcOSi(CH3)2(CH2)3NH(CH3)2]^+[CH3SO3]^−] | salt concentration, […] aqueous Tween 80 [3]: 0.262 mM; solubility in aqueous solution ([3]; in words): show solubility; salt concentration, hexanes [3]: 0.002 mM; solubility in hexanes and mineral oil ([3]; in words): little; salt concentration, mineral oil [3]: 0.002 mM
 |  |  |  |  | CCC=CCC=CCC=CCC=CCC=CCC=CCCC(=O)O.CCC=CCC=CCC=CCC=CCC=CCC=CCCC(=O)O.CN(C)CCC[Si](C)(C)O[Si]1(O[Si](C)(C)CCCN(C)C)n2c3c4ccccc4c2N=C2N=C(N=c4c5ccccc5c(n41)=NC1=NC(=N3)c3ccccc31)c1ccccc12 [DHA salt, {SiPc[OSi(CH3)2(CH2)3NH(CH3)2]2}^2+[CH3CH2(CH═CHCH2)6CH2COO^−]2] | % left ([4]; 4 hrs irradiation): 72%; % left ([4]; 8 hrs irradiation): 62%
 |  |  |  |  | CN(C)CCC[Si](C)(C)O[Si]1(O)n2c3c4ccccc4c2N=C2N=C(N=c4c5ccccc5c(n41)=NC1=NC(=N3)c3ccccc31)c1ccccc12 (stereo not drawn) [Pc 4, HOSiPcOSi(CH3)2(CH2)3N(CH3)2, reference compound] | Pc 4 conc ([5]; H2O, no dispersant): 0.0 μg/mL and 0.0 μM; Pc 4 conc ([5]; aqueous 1,6-hexanediol 7.2 mg/mL (61 mM)): 7.2 μg/mL and 10 μM; Pc 4 conc ([5]; aqueous Dow Corning 193 7.2 mg/mL): 0.29 μg/mL and 0.40 μM; Pc 4 conc ([5]; aqueous potassium poly(ethylene glycol)-4-nonylphenyl-3-sulfopropyl ether 7.2 mg/mL (5.7 mM)): 4.3 μg/mL and 6.0 μM; Pc 4 conc ([5]; aqueous povidone 7.2 mg/mL (0.18 mM)): 0.09 μg/mL and 0.12 μM
soluble | soluble | soluble | insoluble | moderately soluble | CH3(OCH2CH2)˜45OC(O)(CH2)2C(O)OH [Compound 23] | 
soluble | soluble | soluble | insoluble | moderately soluble | H(OCH2CH2)˜9OC(O)(CH2)2C(O)OH [Compound 19] | 
soluble | soluble | soluble | insoluble | moderately soluble | H(OCH2CH2)˜76OOC(CH2)2COOH [Compound 21] | 
 |  |  |  |  | SiPc(OC(O)(CH2)6(CH2CH═CH)2(CH2)4CH3]2 [linoleic ester] | % left ([4]; 4 hrs irradiation): 95%; % left ([4]; 12 hrs irradiation): 95%; % left ([4]; 20 hrs irradiation): 94%
 |  |  |  |  | SiPc[OC(O)(CH2)17]2 [stearic ester] | % left ([4]; 20 hrs irradiation): 100%
soluble | soluble | soluble | insoluble | moderately soluble | [HOSiPcOSi(CH3)2(CH2)3NH(CH2)2]^+[C27H29N2O7S2]^− [Compound 14] | 
soluble | soluble | soluble | slightly soluble | moderately soluble | [HOSiPcOSi(CH3)2(CH2)3NH(CH2)2]^+[C33H53O5]^− [Compound 11] | salt concentration, […] aqueous Tween 80 [3]: 0.004 mM; solubility in aqueous solution ([3]; in words): only slight solubility; salt concentration, hexanes [3]: 0.065 mM; solubility in hexanes and mineral oil ([3]; in words): significant solubility; salt concentration, mineral oil [3]: 0.029 mM; solubility in petrolatum ([3]; petrolatum (Vaseline), in words): significant solubility
soluble | soluble | soluble | insoluble | moderately soluble | [HOSiPcOSi(CH3)2(CH2)3NH(CH3)2]^+[4-C9H19C6H4-1-(OCH2CH2)˜20O(CH2)3SO3]^− [Compound 18] | salt conc in dilute aqueous Tween 80 ([5]; Tween 80 7.2 mg/mL ([…])): 874 µM; salt conc ([5]; aqueous Dow Corning 193 7.2 mg/mL, listed as Pc 245): 50 μg/mL and 70 μM; salt conc ([5]; aqueous PEG methyl ether 350 7.2 mg/mL (21 mM), listed as Pc 245): 9.3 μg/mL and 13 μM; salt conc ([5]; aqueous PEG methyl ether 750 7.2 mg/mL (9.6 mM), listed as Pc 245): 0.022 μg/mL and 0.031 μM; salt conc ([5]; aqueous PEG methyl ether 2000 7.2 mg/mL (3.6 mM), listed as Pc 245): 1.3 μg/mL and 1.8 μM; salt conc ([5]; aqueous PEG methyl ether 5000 7.2 mg/mL (1.4 mM), listed as Pc 245): 3.4 μg/mL and 4.8 μM; salt conc ([5]; aqueous potassium poly(ethylene glycol)-4-nonylphenyl-3-sulfopropyl ether 7.2 mg/mL (5.0 mM)): 1418 µM; salt conc ([5]; aqueous potassium poly(ethylene glycol)-4-nonylphenyl-3-sulfopropyl ether 7.2 mg/mL (5.0 mM), listed as Pc 245): ~1018 μg/mL and ~1418 μM; salt conc ([5]; aqueous povidone 7.2 mg/mL (0.18 mM), listed as Pc 245): 14 μg/mL and 19 μM
soluble | soluble | soluble | insoluble | moderately soluble | [HOSiPcOSi(CH3)2(CH2)3NH(CH3)2]^+[H(OCH2CH2)˜76O(O)C(CH2)2C(O)O]^− [Compound 22] | 
 |  |  |  |  | {SiPc[OSi(CH3)2(CH2)3NH(CH3)2]2}^2+[CH3CH2(CH═CHCH2)3(CH2)6COO^−]2 [linolenic salt] | % left ([4]; 12 hrs irradiation): 79%; % left ([4]; 20 hrs irradiation): 73%

Compound | solubility in CH2Cl2 [1] | solubility in dimethylformamide [1] | solubility in ethanol [1] | solubility in hexanes [1] | solubility in toluene [1] | other results
CCC(=O)O[Si-2]123(O[Si](C)(C)CCCN(C)C)n4c5c6ccccc6c4N=C4c6ccccc6C(=[N+]41)N=c1c4ccccc4c(n12)=NC1=[N+]3C(=N5)c2ccccc21 [Compound 3, CH3CH2C(O)OSiPcOSi(CH3)2(CH2)3N(CH3)2] | soluble | soluble | soluble | insoluble | moderately soluble | stability in air [2]: stable
[HOSiPcOSi(CH3)2(CH2)3NH(CH3)2]^+[CH3(OCH2CH2)˜45OC(O)(CH2)2C(O)O]^− [Compound 24] | soluble | soluble | soluble | insoluble | moderately soluble | 

From patent publication US8440641B2, “Phthalocyanine salt formulations” (Case Western Reserve University, priority 2009, dated 2013)
